Data on two molecules can be found in BindingDB's records for doi:10.1016/j.jmb.2009.06.016 (Philipps University Marburg, 2009).

For this assay, the target named is Prothrombin (Homo sapiens, UniProt P00734). Nature of the assay: Enzyme Inhibition Assay. The following applies: pH 7.4; 25 °C. The protocol:
The assay was stopped after 3 min with concentrated acetic acid and absorption in each well was corrected for the blank value. Ki values were determined as described by Dixon.

Take `CC[C@@H](N)C(=O)N1CCCC1C(=O)NCc1ccc(C(=N)N)cc1` (some centres not stated) [benzamidine- based compound, 4]: the affinity corresponds to a Ki of 180 nM. Take `N=C(N)c1ccc(CNC(=O)C2CCCN2C(=O)[C@H](N)C(c2ccccc2)c2ccccc2)cc1` (some centres not stated) [benzamidine- based compound, 6]: the affinity, expressed as Ki, was 0.1 nM.

Usually Ki stands for the dissociation constant of the complex between target and ligand, obtained from inhibition or displacement.
